Experimental data: publication PMC7382147, “An effective UFLC–MS/MS method used to study pharmacokinetics of major constituents of Fukeqianjin formula in rat plasma” (Chinese Medicine, 2020)

Key:
[1] = Pharmacokinetic study in rat plasma after oral administration of FKQJF extract (UFLC–MS/MS); assay type: in vivo, Sprague-Dawley (SD) rats; settings: for AUC(0-inf) / AUC(0-t) / Cmax / half-life / MRT last / MRT inf / Tmax: Sprague-Dawley, oral FKQJF extract, single dose 3.2 g/kg, mean ± SD; for MRT last: read-out: MRT0→t; for MRT inf: read-out: MRT0→∞; for Tmax: read-out: Tmax
Experimental: (§1) Aliquots of 100 μL plasma samples were mixed with 10 μL I.S. samples (1 μg/mL, in MeOH), then added with 500 μL ACN, respectively, and vortexed for 5 min, centrifugated at 10,000 rpm for 10 min, the supernatants were transferred into clean vials and dried in a vacuum centrifugal concentrator at 1200 rpm, 37 °C. After that, 100 μL ACN was added and ultrasonic (frequency 40 kHz, power 250 W) extracted for 5 min to dissolve the dry residue, vortexed for 1 min and centrifugated at 10,000 rpm for 5 min, 1 μL of each final supernatant was injected into UFLC–MS/MS for analysis.
An 8050 UFLC–MS/MS system equipped with LC-30A binary pump, a SIL-30AC autosampler, a SPD-M30A PDA detector, a CTO-20AC column oven, and a 8050 triple quadrupole mass spectrometer with an electrospray ionization source (ESI) was applied to detect and quantify FKQJF compounds in plasma samples. Data were acquired and processed with the software LabSolution (Ver. 5.6).
A Kinetex XB-C18 HPLC column (100 × 2.1 mm, 2.6 μm) linked with an equivalent guard column was used for chromatographic separation. The aqueous phase contained 0.2% formic acid was used as mobile phase A, and organic phase ACN as mobile phase B. The gradient elution method using in this program was: 3–5 min, 28–31% B; 5–7 min, 31–34% B; 7–9 min, 34–65% B; 9–10 min, 65–95% B; 10–11.5 min, 95% B. The flow rate of mobile phase, column temperature and autosampler temperature was 0.4 mL/min, 30 °C and 4 °C, respectively. The injection volume of each sample was set as 1 μL. The main MS spectrum parameters were set as follows: the flow rate of drying gas (N2) was 10.0 L/min; the atomized gas was 3.0 L/min and the heating gas flow rate was 10.0 L/min. The main temperatures of interface, desolvation and heat block was 300 °C, 250 °C and 400 °C, respectively. And, the interface and detector voltage were 3 kV and 1.8 kV.
Rats were divided into a blank group and a FKQJF administration group (6 rats for each), and fasted for 24 h. Each rat of the administration group was given FKQJF extract suspension at a single dose of 3.2 g FKQJF/kg body weight through oral administration in parallel. Blood samples (0.25 mL) were gathered from the orbital venous plexus of each rat, with FKQJF group gathered at 14 serial timepoints (6 rats for each) as 0.083 h, 0.16 h, 0.33 h, 0.5 h, 0.75 h, 1.0 h, 1.5 h, 2 h, 3 h, 4 h, 6 h, 8 h, 12 h and 24 h after drug administration. The blood samples were centrifugated at 6000g for 10 min to isolate plasma and stored at − 20 °C for further analysis.
Data were analyzed using the Drug and Statistics (DAS) Software version 2.0 (DAS 2.0, Mathematical Pharmacology Professional Committee of China, Shanghai, China). The non-compartmental mode was applied to obtain the following PK parameters: area under the plasma concentration–time curve from time zero to the time of last quantifiable concentration (AUC0→t) and area under the plasma concentration–time curve to time infinity (AUC0→∞), the elimination half-life (t1/2), mean retention time to last sampling time (MRT0→t) and mean retention time to infinity (MRT0→∞). The maximum plasma concentration (Cmax) and the time to maximum concentration (Tmax) were observed directly from the concentration–time (C–T) curves and measured data. All data are presented as mean ± SD.

[2] = Long-term stability of QC samples (−20 °C for 20 days); assay type: physicochemical, rat; settings: plasma QC
Experimental: as §1
(§2) Six replicates of low, medium and high concentrations of quality control (QC) samples were used to verify the stabilities under different conditions including: place at room temperature for 8 h, freeze (− 20 °C) and thaw for three times, and store at − 20 °C for 20 days.

[3] = Ordinary stability of QC samples (room temperature for 8 h); assay type: physicochemical, rat; settings: plasma QC, room temperature 8 h
Experimental: as §1, §2

[4] = Freeze–thaw stability of QC samples (−20 °C, three times); assay type: physicochemical, rat; settings: plasma QC, freeze (−20 °C) and thaw three times
Experimental: as §1, §2

Compound: CCC/C=C1\OC(=O)C2=C1CCC=C2 [Analyte 18, Z-ligustilide]
- AUC(0-inf) [1]: 194 ± 27.9 ng·h/mL
- AUC(0-t) [1]: 74.7 ± 8.31 ng·h/mL
- Cmax [1]: 10.2 ± 0.58 ng/mL
- half-life [1]: 33.6 ± 27.1 h
- MRT last [1]: 9.85 ± 0.85 h
- MRT inf [1]: 48.2 ± 39.8 h
- Tmax [1]: 1.83 ± 0.29 h
- shape of the plasma concentration–time curve ([1]; oral FKQJF extract 3.2 g/kg): double-peaks
- Long-term stability Mean ([2]; spiked 20 ng/mL): 114.56%
- Long-term stability Mean ([2]; spiked 200 ng/mL): 86.82%
- Long-term stability Mean ([2]; spiked 400 ng/mL): 118.76%
- Ordinary stability Mean ([3]; spiked 20 ng/mL): 107.46%
- Ordinary stability Mean ([3]; spiked 200 ng/mL): 86.65%
- Ordinary stability Mean ([3]; spiked 400 ng/mL): 106.31%
- Freeze–thaw stability Mean ([4]; spiked 20 ng/mL): 88.16%
- Freeze–thaw stability Mean ([4]; spiked 200 ng/mL): 112.10%
- Freeze–thaw stability Mean ([4]; spiked 400 ng/mL): 104.63%

Compound: COc1cc(O)c2c(=O)cc(-c3ccccc3)oc2c1OC [Analyte 19, 7-O-methylwogonin]
- AUC(0-inf) [1]: 252 ± 62.5 ng·h/mL
- AUC(0-t) [1]: 249 ± 65.5 ng·h/mL
- Cmax [1]: 169 ± 73.5 ng/mL
- half-life [1]: 1.1 ± 0.47 h
- MRT last [1]: 2.44 ± 0.12 h
- MRT inf [1]: 2.55 ± 0.21 h
- Tmax [1]: 2 h
- Long-term stability Mean ([2]; spiked 10 ng/mL): 116.14%
- Long-term stability Mean ([2]; spiked 150 ng/mL): 84.29%
- Long-term stability Mean ([2]; spiked 300 ng/mL): 85.96%
- Ordinary stability Mean ([3]; spiked 10 ng/mL): 96.33%
- Ordinary stability Mean ([3]; spiked 150 ng/mL): 80.66%
- Ordinary stability Mean ([3]; spiked 300 ng/mL): 96.04%
- Freeze–thaw stability Mean ([4]; spiked 10 ng/mL): 103.66%
- Freeze–thaw stability Mean ([4]; spiked 150 ng/mL): 111.86%
- Freeze–thaw stability Mean ([4]; spiked 300 ng/mL): 94.97%
